In ChEMBL document CHEMBL1157446, “Cubyl amides: novel P2X7 receptor antagonists” (Bioorg Med Chem Lett, 2008):
Calls of active or inactive are those of the source. The rule behind the calls is not given here.

Experiments:
[1] = target: P2Y purinoceptor 2 (Homo sapiens) (UniProt P41231); assay: Activity at P2Y2 receptor expressed in HEK293 cells at 10 uM to 1 nM; assay type: cell-based
[2] = target: P2Y purinoceptor 4 (Homo sapiens) (UniProt P51582); assay: Agonist activity at P2Y4 receptor expressed in HEK293 cells at 10 uM to 1 nM; assay type: functional, cell-based
[3] = target: P2Y purinoceptor 1 (Homo sapiens) (UniProt P47900); assay: Activity at P2Y1 expressed in HEK293 cells at 10 uM to 1 nM; assay type: cell-based
[4] = target: T1, P2X purinoceptor 7 (Rattus norvegicus) (UniProt Q64663); assay: Antagonist activity at P2X7R in BzATP-stimulated rat spinal cord assessed as decrease in fluorescent propidium iodide dye uptake at 1 uM; assay type: functional
T1 sequence (whole entry): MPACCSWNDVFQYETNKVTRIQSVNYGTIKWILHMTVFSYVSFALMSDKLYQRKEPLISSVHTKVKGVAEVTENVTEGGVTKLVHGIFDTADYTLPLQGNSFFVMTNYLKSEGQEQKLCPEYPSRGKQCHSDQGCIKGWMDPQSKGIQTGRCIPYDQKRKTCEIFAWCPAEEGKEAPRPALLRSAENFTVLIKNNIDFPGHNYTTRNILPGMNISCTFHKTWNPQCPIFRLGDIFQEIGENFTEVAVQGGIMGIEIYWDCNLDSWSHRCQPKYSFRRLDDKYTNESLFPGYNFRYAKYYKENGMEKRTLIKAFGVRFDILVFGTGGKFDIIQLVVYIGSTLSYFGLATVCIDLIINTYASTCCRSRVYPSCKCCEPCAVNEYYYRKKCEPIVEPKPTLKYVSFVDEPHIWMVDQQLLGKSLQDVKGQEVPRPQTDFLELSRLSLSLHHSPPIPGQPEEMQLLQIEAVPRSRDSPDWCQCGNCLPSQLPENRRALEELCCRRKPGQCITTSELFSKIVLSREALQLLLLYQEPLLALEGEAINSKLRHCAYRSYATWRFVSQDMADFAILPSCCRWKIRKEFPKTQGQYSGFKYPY

Sequence of P2Y purinoceptor 2 (Homo sapiens) (P41231 whole entry): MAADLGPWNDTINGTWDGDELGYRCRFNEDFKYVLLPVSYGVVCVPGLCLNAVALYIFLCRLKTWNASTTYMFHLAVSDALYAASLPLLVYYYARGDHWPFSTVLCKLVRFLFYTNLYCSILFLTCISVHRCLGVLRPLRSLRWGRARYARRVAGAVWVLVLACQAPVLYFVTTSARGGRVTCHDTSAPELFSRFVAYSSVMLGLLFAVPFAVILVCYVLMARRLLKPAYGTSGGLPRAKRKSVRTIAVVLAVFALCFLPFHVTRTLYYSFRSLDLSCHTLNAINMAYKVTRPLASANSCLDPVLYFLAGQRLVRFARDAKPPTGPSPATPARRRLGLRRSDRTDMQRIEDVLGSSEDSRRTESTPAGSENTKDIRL
Sequence of P2Y purinoceptor 4 (Homo sapiens) (P51582 whole entry): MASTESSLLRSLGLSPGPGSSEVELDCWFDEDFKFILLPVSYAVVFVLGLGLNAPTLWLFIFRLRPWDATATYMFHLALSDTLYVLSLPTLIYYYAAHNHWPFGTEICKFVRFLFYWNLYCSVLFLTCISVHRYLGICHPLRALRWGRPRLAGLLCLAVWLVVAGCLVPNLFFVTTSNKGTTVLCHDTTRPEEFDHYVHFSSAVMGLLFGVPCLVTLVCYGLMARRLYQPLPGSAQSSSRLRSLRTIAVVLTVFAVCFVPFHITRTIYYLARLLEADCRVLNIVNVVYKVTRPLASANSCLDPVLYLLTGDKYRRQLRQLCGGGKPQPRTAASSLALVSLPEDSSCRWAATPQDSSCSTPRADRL
Sequence of P2Y purinoceptor 1 (Homo sapiens) (P47900 whole entry): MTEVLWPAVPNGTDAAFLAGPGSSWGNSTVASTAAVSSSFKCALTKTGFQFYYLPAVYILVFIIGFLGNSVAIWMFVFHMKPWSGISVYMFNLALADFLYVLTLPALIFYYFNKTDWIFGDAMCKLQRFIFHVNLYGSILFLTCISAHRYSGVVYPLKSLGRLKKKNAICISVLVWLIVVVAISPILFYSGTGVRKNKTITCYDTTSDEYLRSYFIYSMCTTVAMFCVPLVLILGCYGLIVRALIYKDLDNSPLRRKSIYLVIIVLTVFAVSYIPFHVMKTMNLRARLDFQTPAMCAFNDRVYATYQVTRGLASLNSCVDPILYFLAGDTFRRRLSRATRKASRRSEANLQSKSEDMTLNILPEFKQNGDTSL

| Structure (SMILES) | Activity [1] | Activity [2] | Activity [3] | Activity [4] |
| --- | --- | --- | --- | --- |
| O=C(NCC12C3C4C5C3C1C5C42)c1ccccc1F (centres undefined) | inactive | inactive | inactive | Active |
| COc1ccc(Cl)c(C(=O)NCC23C4C5C6C4C2C6C53)c1 (centres undefined) | inactive | inactive | inactive | Active |
| O=C(NCC12CC3CC(CC(C3)C1)C2)c1ccc(F)cc1 | inactive | inactive | inactive | Active |
| O=C(NCC12CC3CC(CC(C3)C1)C2)c1ccccc1F | inactive | inactive | inactive | Active |
| COc1ccc(Cl)c(C(=O)NCC23CC4CC(CC(C4)C2)C3)c1 | inactive | inactive | inactive | Active |
| O=C(NCC12C3C4C5C3C1C5C42)c1ccc(F)cc1 (centres undefined) | inactive | inactive | inactive | Active |
